PubChem BioAssay (NCI)
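Following 48 hours of exposure in 96-well plates, responses at five concentrations were used to interpolate endpoints linearly. At the GI50, growth is halved. TGI: total growth inhibition.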

What was measured:
Assay in all cases: inhibition of tumour cell growth, NCI panel, 48 h
SK-OV-3 ovarian = test system: SK-OV-3 ovarian
HCT-15 colon = test system: HCT-15 colon
SF-268 CNS = test system: SF-268 CNS
K-562 leukemia = test system: K-562 leukemia
IGROV1 ovarian = test system: IGROV1 ovarian
SF-539 CNS = test system: SF-539 CNS
HOP-62 NSCLC = test system: HOP-62 NSCLC
NCI-H226 lung = test system: NCI-H226 lung
OVCAR-3 ovarian = test system: OVCAR-3 ovarian

Row | SMILES | TGI (SK-OV-3 ovarian) [µM] | TGI (HCT-15 colon) [µM] | TGI (SF-268 CNS) [µM] | TGI (K-562 leukemia) [µM] | TGI (IGROV1 ovarian) [µM] | TGI (SF-539 CNS) [µM] | TGI (HOP-62 NSCLC) [µM] | TGI (NCI-H226 lung) [µM] | TGI (OVCAR-3 ovarian) [µM] | GI50 (SK-OV-3 ovarian) [µM] | GI50 (HCT-15 colon) [µM] | GI50 (SF-268 CNS) [µM] | GI50 (K-562 leukemia) [µM] | GI50 (IGROV1 ovarian) [µM] | GI50 (OVCAR-3 ovarian) [µM] | GI50 (HOP-62 NSCLC) [µM] | GI50 (NCI-H226 lung) [µM] | GI50 (SF-539 CNS) [µM]
1 | CC(C)(C)c1cc(Cc2ccc(S(C)(=O)=O)cc2)c(O)c(C(C)(C)C)c1 | 36.2 | 31 | 25.9 | 31.6 | 28.3 | 30.7 | 29.8 | – | – | – | – | – | – | – | – | – | – | –
2 | O=C(Nc1ccc(Nc2ccc(NC(=O)c3ccccc3)c3c2C(=O)c2ccccc2C3=O)c2c1C(=O)c1ccccc1C2=O)c1ccccc1 | > 100 | > 100 | > 100 | > 100 | > 100 | > 100 | > 100 | > 100 | > 100 | – | – | – | – | – | – | – | – | –
3 | Cc1cc(NS(=O)(=O)c2ccc(NC(=O)c3cccc4c(Nc5ccc(S(=O)(=O)Nc6cc(C)on6)cc5)c5ccc(Cl)cc5nc34)cc2)no1 | > 100 | > 100 | > 100 | > 100 | > 100 | > 100 | > 100 | – | > 100 | – | – | – | – | – | – | – | – | –
4 | O=C1CCC2(c3ccccc3)OCC([C@@H](O)c3ccccc3)N12 (stereo partly specified) | – | > 100 | > 100 | > 100 | > 100 | > 100 | > 100 | – | > 100 | – | – | – | – | – | – | – | – | –
5 | COc1ccc(C(=O)C(c2ccc(OC)cc2)C2(O)C(=O)Nc3c(Cl)cc(Cl)cc32)cc1 (stereo unspecified) | 90.6 | 49.8 | > 100 | 41.5 | – | – | 54.4 | 36.5 | 49.9 | – | – | – | – | – | – | – | – | –
6 | O=C1CC[C@@H](S(=O)(=O)c2ccccc2)[C@H](/C=C/c2ccccc2)O1 | > 100 | > 100 | – | > 100 | > 100 | > 100 | > 100 | > 100 | > 100 | – | – | – | – | – | – | – | – | –
7 | C=C1C2CCCC1C1(S(C)(=O)=O)CCCCC21O (stereo unspecified) | > 100 | > 100 | – | > 100 | > 100 | > 100 | – | > 100 | > 100 | – | – | – | – | – | – | – | – | –
8 | CC1CN1c1c(C(=O)/C=C/c2ccc(F)cc2)c(-c2ccccc2)nn(C)c1=O (stereo unspecified) | – | – | 30.4 | – | 40.2 | – | 38.9 | 25.3 | 28.9 | – | – | – | – | – | – | – | – | –
9 | CCCCN(CCCC)CC(C(=O)Nc1ccc([N+](=O)[O-])cc1[N+](=O)[O-])/C(C)=N\NC(=O)c1ccncc1 (stereo unspecified) | > 100 | > 100 | > 100 | > 100 | > 100 | > 100 | > 100 | – | > 100 | – | – | – | – | – | – | – | – | –
10 | Cc1[nH]c2ccccc2c1/C=C/c1c(C)[nH]c2ccccc12 | > 100 | > 100 | – | > 100 | > 100 | > 100 | > 100 | > 100 | > 100 | – | – | – | – | – | – | – | – | –
11 | CC(=O)[CH-]C(=O)c1ccccc1.CC(=O)[CH-]C(=O)c1ccccc1.CC(=O)[CH-]C(=O)c1ccccc1.[Cl-].[Hf+4] | > 100 | > 100 | > 100 | > 100 | > 100 | – | > 100 | – | > 100 | 46.1 | 23.9 | 23.7 | 37.6 | 47 | 13.6 | 51.2 | – | –
12 | COC12OCCN(C)C1=CC(=O)C1N=NCC12 (stereo unspecified) | > 100 | > 100 | – | > 100 | > 100 | > 100 | – | > 100 | > 100 | – | – | – | – | – | – | – | – | –
13 | O=C(CC(=O)N1N=C(n2ccc3ccccc32)CC1c1ccccc1)Nc1ccccc1Cl (stereo unspecified) | > 100 | > 100 | > 100 | > 100 | > 100 | > 100 | > 100 | – | > 100 | – | – | – | – | – | – | – | – | –
14 | O=c1[nH]c(-c2ccccc2)nc2cc([N+](=O)[O-])c(/C(Cl)=C/c3ccccc3)cc12 | 72.2 | > 100 | > 100 | > 100 | > 100 | > 100 | – | > 100 | > 100 | – | – | – | – | – | – | – | – | –
15 | COc1c(CC(C)=O)c2ccccc2n1C(C)=O | > 100 | > 100 | – | > 100 | > 100 | > 100 | > 100 | – | > 100 | – | – | – | – | – | – | – | – | –
16 | O=C(CCl)N1CCN(c2ccccc2)CC1 | > 100 | 39.2 | 33 | > 100 | 51.7 | – | 36.3 | – | – | – | – | – | – | – | – | – | – | –
17 | [pH]1p2[pH]p3p1p3[pH]2.c1cc[c]([Ge]([c]2ccccc2)[c]2ccccc2)cc1.c1cc[c]([Ge]([c]2ccccc2)[c]2ccccc2)cc1.c1cc[c]([Ge]([c]2ccccc2)[c]2ccccc2)cc1 | 33.8 | – | 40.7 | 43.5 | 62.5 | 31.8 | 66.1 | 37.2 | 23.4 | 15.4 | – | 16.4 | 16.4 | 30 | 10.9 | 28.7 | 20.5 | 13.9
18 | NC(N)=NCCCC(Nc1c2ccccc2nc2ccccc12)C(=O)O (stereo unspecified) | – | > 100 | > 100 | > 100 | – | > 100 | – | > 100 | > 100 | – | – | – | – | – | – | – | – | –
